Reference: ChEMBL document CHEMBL1201862, “PubChem BioAssay data set” (2004)
The source made the active and inactive calls.

Legend:
P388/ADR = assay: cells; assay type: functional; settings: Mus musculus
SN12K1 = assay: cells; assay type: functional; settings: Homo sapiens
P388 = assay: cells; assay type: functional; settings: Mus musculus
[1] = Luminescence Cell-Based Dose Confirmation HTS to Identify Activators of 5'UTR Stem-Loop Driven Alpha-Synuclein mRNA Translation in H4 Neuroglioblastoma Cells. [Related pubchem assays: 1829 (Project Summary), 1814 (Primary HTS)]; assay type: functional
[2] = Luminescence Cell-Based Dose Response HTS to Identify Activators of Luciferase Translation or Activity in H4 […] Cells. [Related pubchem assays: 1829 (Project Summary), 1814 (Primary HTS)]; assay type: functional
H4 = assay: Luminescence Cell-Based Dose Response HTS to Identify Activators of 5'UTR Stem-Loop Driven Prion Protein mRNA Translation in H4 Neuroglioblastoma Cells. [Related pubchem assays: 1829 (Project Summary), 1814 (Primary HTS)]; assay type: functional; settings: Homo sapiens
Caspase-3 = target: T1, Caspase-3 (Homo sapiens, UniProt P42574); assay type: functional;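 note: Dose-response selectivity test against caspase-3 for candidate inhibitors of sentrin-specific proteases (SENPs)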
T1 sequence (P42574 whole entry): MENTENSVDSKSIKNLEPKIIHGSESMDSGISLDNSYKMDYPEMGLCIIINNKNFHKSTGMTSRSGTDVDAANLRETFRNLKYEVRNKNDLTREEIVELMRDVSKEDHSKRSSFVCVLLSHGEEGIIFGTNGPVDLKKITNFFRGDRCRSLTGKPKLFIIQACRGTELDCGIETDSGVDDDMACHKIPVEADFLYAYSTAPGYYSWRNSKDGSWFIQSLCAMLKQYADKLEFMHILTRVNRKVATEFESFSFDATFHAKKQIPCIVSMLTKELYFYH

[3] = target: T2, Sentrin-specific protease 7 (Homo sapiens, UniProt Q9BQF6); assay type: functional;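 note: Luminescence-based dose-response confirmation of ultra-high-throughput screening hits, measuring inhibition of SENP7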
T2 sequence (Q9BQF6 whole entry): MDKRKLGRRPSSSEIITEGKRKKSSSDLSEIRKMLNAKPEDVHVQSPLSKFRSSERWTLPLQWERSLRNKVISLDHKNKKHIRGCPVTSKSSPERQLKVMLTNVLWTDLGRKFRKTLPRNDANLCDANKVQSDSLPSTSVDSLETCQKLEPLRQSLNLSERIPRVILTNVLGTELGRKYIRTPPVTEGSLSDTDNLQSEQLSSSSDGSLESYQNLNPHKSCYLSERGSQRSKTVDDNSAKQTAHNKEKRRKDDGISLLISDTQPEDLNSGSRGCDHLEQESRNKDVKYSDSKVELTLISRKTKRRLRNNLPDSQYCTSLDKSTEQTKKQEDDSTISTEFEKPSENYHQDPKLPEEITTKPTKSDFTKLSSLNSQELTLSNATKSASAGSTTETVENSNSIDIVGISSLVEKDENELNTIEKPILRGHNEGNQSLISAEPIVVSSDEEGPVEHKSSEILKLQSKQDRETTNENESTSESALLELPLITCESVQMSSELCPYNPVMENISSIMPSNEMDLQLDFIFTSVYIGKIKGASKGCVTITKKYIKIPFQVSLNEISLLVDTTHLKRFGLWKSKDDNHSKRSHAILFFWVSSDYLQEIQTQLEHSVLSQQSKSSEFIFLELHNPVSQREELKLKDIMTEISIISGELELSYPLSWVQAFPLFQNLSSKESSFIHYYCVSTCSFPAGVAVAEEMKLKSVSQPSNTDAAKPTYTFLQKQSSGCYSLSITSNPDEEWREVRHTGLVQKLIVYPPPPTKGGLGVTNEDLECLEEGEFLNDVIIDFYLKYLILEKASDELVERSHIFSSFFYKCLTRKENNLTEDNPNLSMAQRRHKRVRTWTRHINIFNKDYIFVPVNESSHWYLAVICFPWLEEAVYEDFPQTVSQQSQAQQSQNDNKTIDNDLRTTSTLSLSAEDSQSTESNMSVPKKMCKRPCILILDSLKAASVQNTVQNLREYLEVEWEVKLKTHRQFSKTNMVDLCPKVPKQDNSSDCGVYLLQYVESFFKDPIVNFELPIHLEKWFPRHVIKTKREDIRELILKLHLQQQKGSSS

[4] = target: T3, Sentrin-specific protease 6 (Homo sapiens, UniProt Q9GZR1); assay type: functional;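 note: Luminescence-based dose-response confirmatory assay of SENP6 inhibition, following up an ultra-high-throughput screen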
T3 sequence (Q9GZR1 whole entry): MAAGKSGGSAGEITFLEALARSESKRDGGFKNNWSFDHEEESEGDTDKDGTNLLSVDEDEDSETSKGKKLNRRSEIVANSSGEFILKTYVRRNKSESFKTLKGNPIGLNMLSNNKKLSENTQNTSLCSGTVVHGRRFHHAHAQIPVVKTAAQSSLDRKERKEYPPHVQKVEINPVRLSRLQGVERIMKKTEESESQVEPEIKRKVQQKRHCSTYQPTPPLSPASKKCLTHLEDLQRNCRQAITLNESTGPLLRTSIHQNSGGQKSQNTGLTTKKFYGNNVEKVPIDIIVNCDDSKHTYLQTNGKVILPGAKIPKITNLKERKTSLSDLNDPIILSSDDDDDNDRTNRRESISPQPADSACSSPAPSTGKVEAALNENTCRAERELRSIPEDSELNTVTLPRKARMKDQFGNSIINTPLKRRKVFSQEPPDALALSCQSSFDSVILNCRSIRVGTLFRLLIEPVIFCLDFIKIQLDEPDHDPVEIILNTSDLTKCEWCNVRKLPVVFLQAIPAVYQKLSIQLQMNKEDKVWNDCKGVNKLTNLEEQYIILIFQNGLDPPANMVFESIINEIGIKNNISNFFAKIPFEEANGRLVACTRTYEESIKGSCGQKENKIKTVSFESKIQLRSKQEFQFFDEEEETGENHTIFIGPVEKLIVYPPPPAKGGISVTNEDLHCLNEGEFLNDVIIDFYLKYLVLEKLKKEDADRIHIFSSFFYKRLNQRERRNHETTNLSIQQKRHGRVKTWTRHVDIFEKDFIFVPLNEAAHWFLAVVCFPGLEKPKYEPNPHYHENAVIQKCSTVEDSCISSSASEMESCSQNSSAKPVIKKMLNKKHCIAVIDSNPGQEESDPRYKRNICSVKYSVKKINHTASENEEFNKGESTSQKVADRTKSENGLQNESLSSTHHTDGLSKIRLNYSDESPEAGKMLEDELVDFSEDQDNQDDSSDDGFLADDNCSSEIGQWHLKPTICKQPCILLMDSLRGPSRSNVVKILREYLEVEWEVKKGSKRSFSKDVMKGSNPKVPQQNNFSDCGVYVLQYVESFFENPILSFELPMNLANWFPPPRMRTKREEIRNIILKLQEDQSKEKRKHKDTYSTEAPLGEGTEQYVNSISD

[5] = target: T4, Sentrin-specific protease 8 (Homo sapiens, UniProt Q96LD8); assay type: functional;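 note: luminescence read-out of SENP8 inhibition, dose-response confirmation following an ultra-high-throughput screen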
T4 sequence (Q96LD8 whole entry): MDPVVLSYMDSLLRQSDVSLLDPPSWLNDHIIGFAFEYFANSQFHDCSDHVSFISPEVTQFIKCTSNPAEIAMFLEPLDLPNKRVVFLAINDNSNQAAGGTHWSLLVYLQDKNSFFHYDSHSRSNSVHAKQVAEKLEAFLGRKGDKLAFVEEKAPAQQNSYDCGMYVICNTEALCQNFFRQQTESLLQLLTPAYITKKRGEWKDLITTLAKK

Cytochrome P450 3A4 = Cytochrome P450 3A4 (Homo sapiens, UniProt P08684);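 note: CYP3A4 tested as one member of a cytochrome P450 panel screen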
Cytochrome P450 3A4, sequence (P08684 whole entry): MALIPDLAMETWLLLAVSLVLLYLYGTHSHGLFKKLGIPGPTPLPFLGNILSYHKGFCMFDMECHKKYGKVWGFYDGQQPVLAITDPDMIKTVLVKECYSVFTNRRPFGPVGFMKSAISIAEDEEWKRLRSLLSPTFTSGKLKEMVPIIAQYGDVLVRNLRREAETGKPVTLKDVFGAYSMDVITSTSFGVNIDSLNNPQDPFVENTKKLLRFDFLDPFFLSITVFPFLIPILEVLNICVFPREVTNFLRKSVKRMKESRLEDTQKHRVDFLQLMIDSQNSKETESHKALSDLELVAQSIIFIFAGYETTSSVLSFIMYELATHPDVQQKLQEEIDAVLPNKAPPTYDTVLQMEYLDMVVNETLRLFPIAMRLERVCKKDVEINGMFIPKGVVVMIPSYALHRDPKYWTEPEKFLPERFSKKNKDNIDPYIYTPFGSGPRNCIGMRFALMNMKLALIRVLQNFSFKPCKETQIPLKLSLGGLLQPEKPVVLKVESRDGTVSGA

[6] = target: T5, Histone-lysine N-methyltransferase NSD2 (Homo sapiens, UniProt O96028); assay type: biochemical
T5 sequence (O96028 whole entry): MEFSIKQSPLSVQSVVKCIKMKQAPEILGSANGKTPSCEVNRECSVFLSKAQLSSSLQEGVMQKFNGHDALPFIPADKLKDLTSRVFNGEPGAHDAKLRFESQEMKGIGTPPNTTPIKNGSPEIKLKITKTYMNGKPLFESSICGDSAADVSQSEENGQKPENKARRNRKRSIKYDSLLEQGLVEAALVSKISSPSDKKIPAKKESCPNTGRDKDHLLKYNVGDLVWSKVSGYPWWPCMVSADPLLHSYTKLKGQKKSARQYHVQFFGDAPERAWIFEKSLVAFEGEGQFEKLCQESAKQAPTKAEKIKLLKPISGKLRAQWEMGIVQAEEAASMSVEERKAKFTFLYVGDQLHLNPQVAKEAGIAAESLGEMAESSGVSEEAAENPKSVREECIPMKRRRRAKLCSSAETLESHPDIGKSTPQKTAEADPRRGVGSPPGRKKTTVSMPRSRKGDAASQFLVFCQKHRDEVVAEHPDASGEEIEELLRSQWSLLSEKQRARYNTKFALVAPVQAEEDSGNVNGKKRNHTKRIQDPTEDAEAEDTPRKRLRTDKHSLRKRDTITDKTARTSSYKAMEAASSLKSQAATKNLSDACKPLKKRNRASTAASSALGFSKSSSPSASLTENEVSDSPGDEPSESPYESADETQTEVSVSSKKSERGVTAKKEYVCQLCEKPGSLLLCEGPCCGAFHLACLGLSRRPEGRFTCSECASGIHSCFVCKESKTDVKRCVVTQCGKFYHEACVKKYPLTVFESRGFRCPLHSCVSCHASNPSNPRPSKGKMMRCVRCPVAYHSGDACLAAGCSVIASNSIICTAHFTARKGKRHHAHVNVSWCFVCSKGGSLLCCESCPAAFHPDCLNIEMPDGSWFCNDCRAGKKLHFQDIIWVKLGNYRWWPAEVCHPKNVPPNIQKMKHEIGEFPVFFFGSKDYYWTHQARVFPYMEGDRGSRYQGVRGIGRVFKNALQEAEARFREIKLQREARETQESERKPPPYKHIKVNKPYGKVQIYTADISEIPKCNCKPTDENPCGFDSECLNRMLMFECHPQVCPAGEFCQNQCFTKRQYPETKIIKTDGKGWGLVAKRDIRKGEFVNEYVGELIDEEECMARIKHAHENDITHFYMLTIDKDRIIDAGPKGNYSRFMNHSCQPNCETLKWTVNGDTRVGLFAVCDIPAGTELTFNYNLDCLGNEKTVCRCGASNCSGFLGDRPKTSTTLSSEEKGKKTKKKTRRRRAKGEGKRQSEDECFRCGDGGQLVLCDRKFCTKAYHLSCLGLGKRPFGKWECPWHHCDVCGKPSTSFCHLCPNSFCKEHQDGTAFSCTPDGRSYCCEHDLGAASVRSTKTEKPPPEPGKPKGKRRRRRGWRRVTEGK

With NC1=NCN(C2OC(CO)C(O)C2O)C(=O)N1 (configuration not stated) the GI50 (P388/ADR) was 10.4 µM (inactive), the GI50 (SN12K1) was 13.9 µM (inactive) and the GI50 (P388) was 8.57 µM (inactive).

In the case of O=C(Nc1ccccc1[N+](=O)[O-])C1COc2ccccc2O1 (configuration not stated), the EC50 [1] is reported as 0.244 µM (active), the EC50 [2] is reported as > 120 µM (not active) and the EC50 (H4) is reported as 6.61 µM (active).

For CN(C)/N=N/c1ccc([N+](=O)[O-])cc1C(N)=O, the GI50 (P388/ADR) was > 100 µM (inactive), the GI50 (SN12K1) was > 100 µM (inactive) and the GI50 (P388) was > 100 µM (inactive).

For COc1cc(Cc2nccc3cc(OC)c(OC)cc23)c(C(C)=O)cc1OC, the GI50 (P388/ADR) was 14.5 µM (inactive), the GI50 (SN12K1) was 20.4 µM (inactive) and the GI50 (P388) was 1.66 µM (inactive).

In the case of COc1ccccc1C(=O)N/N=C(\C)c1ccc(NC(=O)Cc2ccccc2)cc1, the EC50 [1] is reported as > 120 µM (not active), the EC50 [2] is reported as > 120 µM (not active) and the EC50 (H4) is reported as > 120 µM (not active).

In the case of O=C(c1ccccc1)c1ccc(Cn2cc(-c3ccccc3)nn2)cc1, the IC50 (Caspase-3) is reported as 32.3 µM (active), the IC50 [3] is reported as 5.67 µM (active) and the IC50 [4] is reported as 19.5 µM (active). For the same molecule, the IC50 [5] was 23.9 µM (active).

For C=C(C)C(O)CC/C(C)=C/Cc1c(O)ccc(C(=O)/C=C/c2ccc(O)cc2)c1O (configuration not stated) [XANTHOANGELOL B], the IC50 (Caspase-3) was 28.1 µM (active), the IC50 [3] was 3.39 µM (active) and the IC50 [4] was 4.22 µM (active). The IC50 [5] was 5.08 µM (active).

With CCC1(O)C(=O)OCc2c1cc1n(c2=O)Cc2cc3cc4c(cc3nc2-1)OCO4 (configuration not stated) the GI50 (P388/ADR) was < 0.01 µM (active), the GI50 (SN12K1) was < 0.01 µM (active) and the GI50 (P388) was < 0.01 µM (active).

In the case of COc1ccc2cc(C(=O)NCCc3ccccc3)[nH]c2c1, the EC50 [1] is reported as 43.2 µM (active), the EC50 [2] is reported as 48 µM (active) and the EC50 (H4) is reported as 99.5 µM (active).

For CCCCN1C(=O)C(=O)N(CC(=O)N2N=C3/C(=C/c4ccco4)CCCC3C2c2ccco2)C1=O (configuration not stated), the EC50 [1] was > 120 µM (not active), the EC50 [2] was 14.8 µM (active) and the EC50 (H4) was 19.6 µM (active).

For C=C1C(=O)O[C@@H]2[C@H]3O[C@]3(C)CCC=C(C)CC[C@@H]12, the GI50 (P388/ADR) was 4.84 µM (inactive), the GI50 (SN12K1) was 16.4 µM (inactive) and the GI50 (P388) was 6.59 µM (inactive). The AC50 (Cytochrome P450 3A4) was 10 µM (inconclusive).

For Cc1ccccc1NS(=O)(=O)c1cccc(C(=O)Nc2cccc(C(=O)O)c2)c1, the IC50 (Caspase-3) was 66.7 µM (active), the IC50 [3] was 9.34 µM (active) and the IC50 [4] was 23.3 µM (active). For the same molecule, the IC50 [5] was 23.7 µM (active).

For CCCn1cc2c3c(cccc31)C1C=C(C)CN(C)C1C2 (configuration not stated), the GI50 (P388/ADR) was 3.34 µM (inactive), the GI50 (SN12K1) was 14.2 µM (inactive) and the GI50 (P388) was 5.69 µM (inactive).

With COC1=C(C)C(=O)C2=C(C1=O)C1C3CC4=C(C(=O)C(OC)=C(C)C4=O)C(CNC(=O)C(C)=O)N3C(C#N)C(C2)N1C (configuration not stated) the GI50 (P388/ADR) was 0.0448 µM (active), the GI50 (SN12K1) was < 0.01 µM (active) and the GI50 (P388) was 0.01 µM (active). The AC50 [6] was 8.92 µM (active).
